IC50 data for 1 molecule are collected here from ChEMBL document CHEMBL1126610, “Amidinium cation as a mimic of allylic carbocation: synthesis and squalene synthetase inhibitory activity of an amidinium analog of a carbocation intermediate” (J Med Chem, 1993).

The target of experiment [1] is T1, Squalene synthase (Rattus norvegicus, UniProt Q02769).
T1 sequence (Q02769 whole entry): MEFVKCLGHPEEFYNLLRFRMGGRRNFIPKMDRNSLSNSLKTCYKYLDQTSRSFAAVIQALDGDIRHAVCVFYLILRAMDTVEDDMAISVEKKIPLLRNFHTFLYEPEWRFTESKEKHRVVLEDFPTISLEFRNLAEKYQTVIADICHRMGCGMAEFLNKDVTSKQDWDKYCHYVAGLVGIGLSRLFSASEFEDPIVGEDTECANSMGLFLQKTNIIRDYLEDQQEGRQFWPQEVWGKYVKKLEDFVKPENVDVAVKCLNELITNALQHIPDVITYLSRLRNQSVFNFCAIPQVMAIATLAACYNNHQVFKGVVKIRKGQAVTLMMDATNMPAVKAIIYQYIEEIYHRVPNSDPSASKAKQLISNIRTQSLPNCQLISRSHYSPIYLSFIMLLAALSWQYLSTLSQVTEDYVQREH
Kind of experiment: Inhibitory activity against squalene synthetase in the presence of inorganic pyrophosphate in rat liver microsomal assay. It counts as microsomes. Background: Liver microsomes are a subcellular fraction often used to study metabolism.

Experiment [2] concerns the target T1, Squalene synthase. Kind of experiment: Inhibitory activity against squalene synthetase in rat liver microsomal assay. It counts as microsomes.

By IC50 is commonly meant the point on the concentration scale where inhibition reaches its midpoint. For `CC(C)=CCC/C(C)=C/CC/C(C)=C/C/N=C/N(C)CC/C=C(\C)CCC=C(C)C`, the half-inhibitory concentration (IC50) at Squalene synthase [1] came out at 100 nM; against Squalene synthase [2] it was 6.9 µM.
